# Test results reported in patent US7893199B2, “Peptides having neutrophil-stimulating activity” (National University Corporation Gunma University, priority 2006, dated 2011).
# Where two headings read alike, the source gives them in different places. Where a SMILES comes first, the peptide text is derived from it. Where no end group is shown, it is not given here.
# Test system: HL-60 cells differentiated into the neutrophil-like cells
# Assay: β-hexosaminidase-secreting activity of neutrophil-like differentiated HL-60 cells
# Type: cell-based, human
# Details: for Activity (β-hexosaminidase-secreting activity class): lowest concentration class at which secretion was confirmed
# Source text: (1) Culture of Cell and Differentiation Into Neutrophil-like Cell
# In this time, the cells were subcultured at a cell density of 1.0×10^5 cells/ml to 1.5×10^6 cells/ml, the number of cells was counted using a microscope, and the state of the cells was also confirmed.
# The HL-60 cells were differentiated into neutrophil-like cells by setting the cell density in the flask to about 1.0×10^6 cells/ml, adding dibutylyl-cAMP (db-cAMP) as a differentiation-inducing agent so as to have a final concentration of 500 μM, and incubating the cells in the presence of CO2 at 37° C. for 3 days.
# (2) Stimulation of Cell and Measurement of β-Hexosaminidase-secreting Activity
# The cells were collected by centrifuging the suspension of the differentiated HL-60 cells (1,000 rpm, 5 minutes, 4° C.). After that, the following operation was repeated three times to wash the cells: Hepes buffered Hank's solution (HBHS) containing ice-cooled 0.1% BSA (1.2 mM CaCl2.2H2O, 5.4 mM KCl, 0.44 mM KH2PO4, 0.49 mM MgCl2.6H2O, 0.41 mM MgSO4.7H2O, 136.9 mM NaCl, 0.34 mM Na2HPO4, 10 mM Hepes, 4.2 mM NaHCO3, 5.5 mM D-glucose, pH 7.4) was added to the cells; the mixture was suspended by inversion; and the mixture was centrifuged again (1,000 rpm, 5 minutes, 4° C.). Subsequently, HBHS was added so that the mixture has a cell density of 5.6×10^6 cells/ml and suspended. Then, DNase I and cytochalasin B were each added so as to have a final concentration of 5 μg/ml, and the cell suspension was dispensed in an amount of 90 μl (5×10^5 cells) on ice. […] After the cell stimulation for 10 minutes, 100 μl of an ice-cooled stop solution (25 mM Tris, 123 mM NaCl, 2.7 mM KCl, pH 7.4) were added, and immediately, the mixture was centrifuged (5,000 rpm, 1 minute, 4° C.). 200 μl of the obtained supernatant were transferred to a new tube.
# The amount of β-hexosaminidase released in the supernatant of the reaction solution was measured by an enzyme reaction using p-nitrophenyl-N-acetyl-μ-D-glucosaminide as a substrate (Non-patent Document 12). That is, the supernatant of the reaction solution was dispensed in an amount of 90 μl to a 96-well plate. 60 μl of a substrate solution (10 mM p-nitrophenyl-N-acetyl-μ-D-glucosaminide, 40 mM citrate, 70 mM Na2HPO4, pH 4.5) were added to each well, followed by incubation at 37° C. for 1 hour. After the reaction, 100 μl of a stop solution (0.4 M glycine, pH 10.7) were added to each well and a color of the released p-nitrophenol was developed. The color development was measured with a plate reader at adsorption at 405 nm (reference: 492 nm). The all amount of β-hexosaminidase contained in the cells was quantified by treating the cells with Triton X-100 having a final concentration of 0.05%. In addition, the amount of β-hexosaminidase secreted by stimulation of 10 μM fMLP was also measured, and the ratio of the secretion amount by stimulation with each peptide to the above sectretion amount by stimulation with fMLP.
# [1] = neutrophil-like differentiated HL-60 cells, Table 1, read-out: EC50 (μM), β-hexosaminidase-secreting activity
# [2] = neutrophil-like differentiated HL-60 cells
Compound,EC50 [1] [µM],Activity (β-hexosaminidase-secreting activity class) [2],β-hexosaminidase-secreting activity of C-terminally extended peptide compared to the peptide before the extension (differentiated HL-60 cells),"EC50 (differentiated HL-60 cells, read-out: EC50, β-hexosaminidase-secreting activity) [µM]"
MLRNLLALRQIGQRTISTASRRH [compound 012],0.78,∘ (a peptide in which the β-hexosaminidase-secreting activity was confirmed at a concentration of 1 μM or less),–,–
MALVHKLLRGTYFLRKFSKPTSAL [compound 025],1.9,⊚ (a peptide in which the β-hexosaminidase-secreting activity was confirmed at a concentration of 300 nM or less),–,–
MLWNLLALHQIGQRTISTASHRHFKNKVPEKQK [compound 032],0.15,⊚ (a peptide in which the β-hexosaminidase-secreting activity was confirmed at a concentration of 300 nM or less),–,–
039 (MAASVVCRAATAGAQVLLRARRSPALLRTPALRS) [compound 039],> 40,● (a peptide in which the β-hexosaminidase-secreting activity was confirmed at a concentration of 10 μM or less),–,–
010 (MLGQSIRRFTTSVVRR) [compound 010],> 40,● (a peptide in which the β-hexosaminidase-secreting activity was confirmed at a concentration of 10 μM or less),–,–
MLRLPTVFRQMRPVSRVLAPHLTRAY [compound 024],1.1,⊚ (a peptide in which the β-hexosaminidase-secreting activity was confirmed at a concentration of 300 nM or less),–,–
MALRAKAEVCMAVPWLSLQRAQAL [compound 049],2,● (a peptide in which the β-hexosaminidase-secreting activity was confirmed at a concentration of 10 μM or less),–,–
MSVLTPLLLRGLTGSARRLPVPRAK [compound 007],8,∘ (a peptide in which the β-hexosaminidase-secreting activity was confirmed at a concentration of 1 μM or less),–,–
021 (MAIQFRSLFPLALPGMLALLGWWWFFSRK) [compound 021],–,● (a peptide in which the β-hexosaminidase-secreting activity was confirmed at a concentration of 10 μM or less),–,–
MAAVVALSLRRRLPATTLGGACLQASRG [compound 026],10,● (a peptide in which the β-hexosaminidase-secreting activity was confirmed at a concentration of 10 μM or less),–,–
006 (MGGLWRPGWRCVPFCGWRWI) [compound 006],–,▴ x,–,–
MFPLARNALSSLKIQSILQSMARH [compound 048],0.1,⊚ (a peptide in which the β-hexosaminidase-secreting activity was confirmed at a concentration of 300 nM or less),–,–
MFRRPVLQVLRQFVRH [compound 037],0.11,⊚ (a peptide in which the β-hexosaminidase-secreting activity was confirmed at a concentration of 300 nM or less),–,–
MAAAALGQIWARKLLSVPWLLCGPRRY [compound 022],0.8,⊚ (a peptide in which the β-hexosaminidase-secreting activity was confirmed at a concentration of 300 nM or less),–,–
005 (MASRLLRGAGTLAAQALR) [compound 005],–,▴ (a peptide in which the β-hexosaminidase-secreting activity was confirmed at a concentration of 100 μM or less),–,–
002 (MASRLLRGAGTLAAQALRARGPSGAAAMR) [compound 002],–,▴ (a peptide in which the β-hexosaminidase-secreting activity was confirmed at a concentration of 100 μM or less),–,–
046 (MLPAALLRRPGLGRLVRHARAY) [compound 046],> 5,∘ (a peptide in which the β-hexosaminidase-secreting activity was confirmed at a concentration of 1 μM or less),–,–
016 (MPLLRGRCPARRHYRRLALLGLQPAPRFA) [compound 016],> 20,● (a peptide in which the β-hexosaminidase-secreting activity was confirmed at a concentration of 10 μM or less),–,–
MSVLTPLLLRGLTGSARRLPVPRAKIHSLPPEGK [No. 033],–,–,higher activity compared to the peptides before the extension,6
MASRLLRGAGTLAAQALRA [compound 004],15,● (a peptide in which the β-hexosaminidase-secreting activity was confirmed at a concentration of 10 μM or less),–,–
MFPLVKSALNRLQVRSIQQTMARQSHQKRT [compound 031],0.2,⊚ (a peptide in which the β-hexosaminidase-secreting activity was confirmed at a concentration of 300 nM or less),–,–
MSVLTPLLLRGLTGSARRLPVPRAKIHSLPPEGK [compound 033],6,∘ (a peptide in which the β-hexosaminidase-secreting activity was confirmed at a concentration of 1 μM or less),–,–
027 (MQRAVSVVARLGFRLQAFPPALCRPLSC) [compound 027],> 30,● (a peptide in which the β-hexosaminidase-secreting activity was confirmed at a concentration of 10 μM or less),–,–
MFPLVKSALNRLQVRSIQQTMARQ [compound 015],0.38,⊚ (a peptide in which the β-hexosaminidase-secreting activity was confirmed at a concentration of 300 nM or less),–,–
MLATRVFSLVGKRAISTSVCVR [compound 018],6.1,∘ (a peptide in which the β-hexosaminidase-secreting activity was confirmed at a concentration of 1 μM or less),–,–
CC[C@H](C)[C@H](NC(=O)[C@H](CC(C)C)NC(=O)[C@@H](N)CCSC)C(=O)N1CCC[C@H]1C(=O)N[C@@H](Cc1ccccc1)C(=O)N[C@@H](CO)C(=O)N[C@@H](CCSC)C(=O)N[C@@H](CCCCN)C(=O)N[C@@H](CC(N)=O)C(=O)N[C@@H](CS)C(=O)N[C@@H](Cc1ccccc1)C(=O)N[C@@H](CCC(N)=O)C(=O)N[C@@H](CC(C)C)C(=O)N[C@@H](CC(C)C)C(=O)N[C@@H](CS)C(=O)N[C@@H](CC(N)=O)C(=O)N[C@@H](CS)C(=O)N[C@@H](CCC(N)=O)C(=O)N[C@H](C(=O)N1CCC[C@H]1C(=O)N[C@@H](C)C(=O)N[C@@H](C)C(=O)NCC(=O)N[C@@H](Cc1ccccc1)C(=O)N[C@@H](CCCCN)C(=O)O)C(C)C [compound 030] (H-MLIPFSMKNCFQLLCNCQVPAAGFK-OH; N-terminus and C-terminus assumed),1,∘ (a peptide in which the β-hexosaminidase-secreting activity was confirmed at a concentration of 1 μM or less),–,–
013 (MALPLRPLTRGL) [compound 013],> 30,● (a peptide in which the β-hexosaminidase-secreting activity was confirmed at a concentration of 10 μM or less),–,–
017 (FTTFLTPAAYVLGNLKQFRRN) [compound 017],> 40,▴ (a peptide in which the β-hexosaminidase-secreting activity was confirmed at a concentration of 100 μM or less),–,–
MASRLLRGAGTLAAQALRARGPSGAAAMRSM [compound 001],23,● (a peptide in which the β-hexosaminidase-secreting activity was confirmed at a concentration of 10 μM or less),–,–
044 (MAAPAVSGLSRQVRCFSTSVVRPF) [compound 044],> 30,● (a peptide in which the β-hexosaminidase-secreting activity was confirmed at a concentration of 10 μM or less),–,–
